According to EP2342182B1 (H. Lundbeck A/S, priority 2008, dated 2010):
Starred links: 1 amine or outer side, 2 acyl side, 3 side chain; linkers in the order of their positions; H or OH if unused. Non-standard residues stand in square brackets, D forms with d. Residues, ends and D or L forms follow the SMILES beside them. X1 = O=C([C@H](Cc1cnc(I)[nH]1)N[*:1])[*:2]

What was measured:
[1] = Free fraction in plasma (equilibrium dialysis); assay type: in vitro ADME; conditions: human EDTA plasma, pH 7.4 buffer, 37 °C
Protocol: Example 14 Free fraction in plasma
Free fraction in human plasma has been determined by equilibrium dialysis between human EDTA plasma (Bioreclamation) and 0.1 M NaH2PO4 buffer adjusted to pH 7.4. The experiment was performed in a 96 well dialysis plate (HTD96b, htdialysis). Plasma was frozen at -80 °C immediately after purchasing. Membranes (HTD 96a/b Dialysis Membrane Strips, MWCO 12-14 K, htdialysis) were soaked for one hour in pure PBS and kept in PBS/EtOH 80:20 (v/v) in a closed bottle at 5 °C until use.
Plasma was thawed in cold water and centrifuged 5 min at 3000 rpm before use to move potential clots. The plasma supernatant was transferred to a new tube. Test compounds were diluted to 0.2 mM in DMSO. Plasma was spiked 1:100 with test compound (final concentration 2 µM).
The dialysis plate was assembled with membranes according to the instructions whereupon 150 µL phosphate buffer was loaded to the lower side of the wells immediately after assembling and spiked plasma was loaded to the upper side of the wells. The plate was sealed with sealing tape and incubated at 37 °C with gently shaking in 5 hours.
After 5 hours incubation the plate was removed from the incubator. The sealing tape was carefully removed and 70 µL from the buffer wells ("lower" side) were transferred to 96 well plates for analysis.
Samples were analysed by LC-MS-MS on a Sciex API 4000 (Applied Biosystems). […]

[2] = molecular target: T1, human NK3 receptor (Homo sapiens, UniProt P29371); experiment: NK3 receptor binding assay (SPA-based competition binding with 125I-NKB); conditions: read-out: Affinity (Ki/nM); as to Affinity (Ki/nM): competition with app 0.02 nM 125I-NKB
T1 construct: expressed in transfected cells; membranes prepared from them
T1 sequence (P29371 1-465): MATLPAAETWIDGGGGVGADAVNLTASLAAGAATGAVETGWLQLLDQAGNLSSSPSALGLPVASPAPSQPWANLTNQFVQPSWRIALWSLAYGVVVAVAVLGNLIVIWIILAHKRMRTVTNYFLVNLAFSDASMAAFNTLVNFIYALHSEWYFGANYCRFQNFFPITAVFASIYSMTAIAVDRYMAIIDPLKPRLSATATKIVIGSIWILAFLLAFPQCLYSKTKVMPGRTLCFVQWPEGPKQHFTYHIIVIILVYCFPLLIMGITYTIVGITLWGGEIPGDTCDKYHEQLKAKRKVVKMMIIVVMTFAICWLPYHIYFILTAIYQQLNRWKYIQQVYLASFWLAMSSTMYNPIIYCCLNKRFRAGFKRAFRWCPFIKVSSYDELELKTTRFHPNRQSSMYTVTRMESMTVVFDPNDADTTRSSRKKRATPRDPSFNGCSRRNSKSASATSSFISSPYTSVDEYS
Protocol: Example 12 NK3 receptor binding assay
(§1) Membranepreparation: BHK cells stably expressing the human NK3 receptor were seeded in harvesting plates in Dulbeccos MEM containing GlutaMax (862 mg/l), 1mM sodium pyruvate, 10% fetal calf serum, 1% Pen/Strep, 1 mg/ml G418 and were grown at 34 °C in a humidified atmosphere containing 10% CO2. To increase receptor expression, 10 µM trichotatin A was added to the media 24 hours before harvest of the cells at a confluency of app 90%. Prior to the harvesting, the cells were washed twice with PBS without Mg^2+ og Ca^2+ and subsequently scrapped of in 10 ml PBS pr harvesting plate. The cells suspension were centrifuged at 1500xG in three minutes before resuspension in 15 mM Tris-HCl pH 7,5 buffer containing 2 mM MgCl2; 0,3 mM EDTA and 1 mM EGTA (buffer A). The cell suspention was homogenised and subsequently centrifuged at 40000xG in 30 minutes. The membrane-pellet was resuspended in buffer A containing 250 mM sucrose, alliquoted and stored at ― 80 °C.
Affinity assay description: The assay was performed as a SPA-based competition-binding assay in a 50 mM Tris pH 7.4 assay buffer containing 120 mM NaCl, 3 mM MnCl2, 40 µg/ml bacitracin, 2 µg/ml Chymostatin, 1 µg/ml Phosphoramidon and 4 µg/ml Leupeptin. […] The assay plate was subsequently under agitation incubated for 90 min at RT. The plate was centrifugated 10 minutes at 500xG and counted in a topcounter 5 minuttes pr well.
The total binding, which comprised less than 5 % of added radioligand, was defined using assay buffer whereas the non-specific binding was defined in the presence of 1 µM osanetant. The non-specific binding constituted app 5 % of the total binding.

[3] = molecular target: T1, human NK3 receptor; experiment: NK3 receptor efficacy and potency assay (FLIPR Calcium 4); assay type: cell-based; conditions: read-out: Potency (cIC50/nM)
Protocol: Example 13 NK3 receptor efficacy and potency assay
BHK cells stably expressing the human NK3 receptor were seeded in 100 µl media in black walled clear-base 96-wells plates (Costar) aiming at a confluency of 95-100% at the day of assay. The assay was performed according to the FLIPR Calcium 4 Assay kit (Molecular Devices). At the day of the assay, the media was removed and the cells were washed once with the HBSS buffer (Hanks BSS buffer, pH 7,4 containing 20 mM Hepes) before 100 µl of a solution of the calcium assay reagent dissolved in the HBSS buffer containing 2,5 mM probinicid was added to the cells. The plates were incubated for 60 min at 34°C, 10% CO2 before use in the FLIPR for examination of fluorescence.
For efficacy and potency evaluation of compounds, these were diluted in HBSS buffer prior to test. For test of agonist activity, 25 µl of the diluted compound solution was added and the plate was analyzed for 5 minutes in the FLIPR. For test of antagonist activity, the plate was incubated for another 45 minutes before addition of 25 µl of the EC85 concentration ofNKB (app. 4 nM) as described above. The plates were subsequently analyzed for 5 minutes before the assay was terminated. The maximal increase in fluorescence over background following each ligand addition was determined.

[4] = molecular target: T1, human NK3 receptor; experiment: NK3 receptor binding assay (SPA-based competition binding with 125I-NKB); conditions: read-out: KD of 125I-NKB; three independent saturation assays, duplicate determinations
Protocol: as §1, with “Example 12 NK3 receptor binding assay Membranepreparation:” for “Membranepreparation:”, “°C. Affinity assay description: The assay was performed as a SPA-based competition-binding assay in a 50 mM Tris pH 7.4 assay buffer containing 120 mM NaCl, 3 mM MnCl2, 40 µg/ml bacitracin, 2 µg/ml Chymostatin, 1 µg/ml Phosphoramidon and 4 µg/ml Leupeptin. […] The plate was centrifugated 10 minutes at 500xG and counted in a topcounter 5 minuttes pr well. […]” for “°C.”

Compound	fraction unbound at 5 h, 2 µM [1]	Ki [2] [nM]	IC50 [3] [nM]	Kd [4] [nM]
CCNn1c(C)c(C(=O)N[C@@H](CC)c2ccccc2)c2ccccc2c1=O [Example 2a, 2-Ethylamino-3-methyl-1-oxo-1,2-dihydro-isoquinoline-4-carboxylic acid ((S)-1-phenylpropyl)-amide]	0.162	–	–	–
CCNn1c(C)c(C(=O)N[C@H](c2ccccc2)C2CC2)c2cccc(F)c2c1=O [Example 2i, 2-Ethylamino-8-fluoro-3-methyl-1-oxo-1,2-dihydro-isoquinoline-4-carboxylic acid ((S)-cyclopropyl-phenyl-methyl)-amide]	0.134	27	–	–
CCCNn1c(C)c(C(=O)N[C@H](c2ccccc2)C2CC2)c2cccc(F)c2c1=O [Example 2k, 8-Fluoro-3-methyl-1-oxo-2-propylamino-1,2-dihydro-isoquinoline-4-corboxylic acid ((S)-cyclopropyl-phenyl-methyl)-amide]	0.124	–	–	–
Cc1c(C(=O)N[C@H](c2cccc(F)c2)C2CCC2)c2cccc(F)c2c(=O)n1NCCCF [Example 10a, 8-Fluoro-2-(3-fluoro-propylamino)-3-methyl-1-oxo-1,2-dihydro-isoqunoline-4-carboxylic acid [(S)-cyclobutyl-(3-fluoro-phenyl)-methyl]-amide]	0.089	–	–	–
CC[C@H](NC(=O)c1c(O)c(-c2ccccc2)nc2ccccc12)c1ccccc1 [Talnetant, talnetant, reference compound]	0.006	–	–	–

The remaining lines, values ahead:

fraction unbound at 5 h, 2 µM [1]	Ki [2] [nM]	IC50 [3] [nM]	Kd [4] [nM]	Compound
0.062	31	36	–	CCNn1c(C)c(C(=O)N[C@@H](CC)c2ccccc2)c2cccc(Cl)c2c1=O [Example 2h, 8-Chloro-2-ethylamino-3-methyl-1-oxo-1,2-dihydro-isoquinoline-4-carboxylic acid ((S)-1-phenyl-propyl)-amide]
0.06	4.7	–	–	CCNn1c(C)c(C(=O)N[C@H](c2cccc(F)c2)C2CCC2)c2cccc(F)c2c1=O [Example 2s, 2-Ethylamino-8-fluoro-3-methyl-1-oxo-1,2-dihydro-isoquinoline-4-carboxylic acid [(S)-cyclobutyl-(3-fluoro-phenyl)-methyl]-amide]
0.146	43	–	–	CCNn1c(C)c(C(=O)N[C@@H](CC)c2ccccc2)c2cccc(F)c2c1=O [Example 2t, 2-Ethylamino-8-fluoro-3-methyl-1-oxo-1,2-dihydro-isoquinoline-4-carboxylic acid ((S)-1-phenyl-propyl)-amide]
0.132	28	–	–	CCNn1c(C)c(C(=O)N[C@H](c2ccc(F)cc2)C2CC2)c2cccc(F)c2c1=O [Example 2w, 2-Ethylamino-8-fluoro-3-methyl-1-oxo-1,2-dihydro-isoquinoline-4-carboxylic acid [(S)-cyclopropyl-(4-fluoro-phenyl)-methyl]-amide]
0.046	–	–	–	CCCNn1c(C)c(C(=O)N[C@H](c2ccc(F)cc2)C2CCC2)c2cccc(F)c2c1=O [Example 8c]
–	–	–	0.7	CSCC[C@H](NC(=O)[C@H](CC(C)C)NC(=O)CNC(=O)[C@@H](NC(=O)[C@H](Cc1ccccc1)NC(=O)[C@H](Cc1ccccc1)NC(=O)[C@H](CC(=O)O)NC(=O)[C@H](Cc1cnc(I)[nH]1)NC(=O)[C@H](CCSC)NC(=O)[C@@H](N)CC(=O)O)C(C)C)C(N)=O [^125I-NKB] (H-DM[X1]DFFVGLM-NH2)
